Source: paper PMC6812009, “Covalent Aurora A regulation by the metabolic integrator coenzyme A” (Redox Biology, 2019)

How the values were obtained:
[1] = target: T1, wild-type Aurora A (Homo sapiens, UniProt O14965); assay: In vitro CoAlation assay; format: binding
T1 construct: For enzyme and DSF assays, full-length human Aurora A and Aurora B and 1–43 TPX2 were produced; made in house; host or cells: E. coli
Method: (§1) For CoAlation assays, 0.5 μg of purified recombinant preparations of wild type and mutant forms of His-Aurora A (Cys290Ala; Cys393Ala, Cys290/393Ala, Thr217Glu) and His-Aurora B (Glu161Thr) were incubated with a mixture of oxidised and reduced forms of CoA (CoASH and CoASSCoA, 1 mM final) in 20 mM Tris-HCl, pH 7.5 for 30 min at RT. The reaction was stopped by adding SDS gel-loading buffer without DTT, but containing 10 mM NEM. To examine whether binding of the 3′-phosphate ADP moiety of CoA to the Aurora A ATP binding-pocket co-ordinates the pantetheine thiol for disulfide bond formation with Cys 290, the in vitro CoAlation assay was carried out with 100 μM CoA and increasing concentrations of ATP (0–10 mM).

[2] = target: T2, Aurora B mutant (Homo sapiens, UniProt Q96GD4, E161T); assay: In vitro CoAlation assay; format: binding
T2 construct: For enzyme and DSF assays, full-length human Aurora A and Aurora B and 1–43 TPX2 were produced; made in house; host or cells: E. coli BL21 (DE3) pLysS
Method: as §1

[3] = target: Aurora B (Homo sapiens, UniProt Q96GD4); assay: In vitro CoAlation assay; format: binding; settings: optimal Aurora A assay conditions
Method: as §1

[4] = target: T3, Thr217Glu mutant of Aurora A (Homo sapiens, UniProt O14965, T217E); assay: In vitro CoAlation assay; format: binding
T3 construct: For enzyme and DSF assays, full-length human Aurora A and Aurora B and 1–43 TPX2 were produced; made in house; host or cells: E. coli
Method: as §1

[5] = target: T4, Cys290/393Ala Aurora A mutant (Homo sapiens, UniProt O14965, C290A/C393A); assay: In vitro CoAlation assay; format: binding
T4 construct: made in house
Method: as §1

[6] = target: T5, Cys290Ala Aurora A mutant (Homo sapiens, UniProt O14965, C290A); assay: In vitro CoAlation assay; format: binding
T5 construct: For enzyme and DSF assays, full-length human Aurora A and Aurora B and 1–43 TPX2 were produced; made in house; host or cells: E. coli BL21 (DE3) pLysS
Method: as §1

[7] = test system: VEGFR; assay: Kinase profiling screen (radioactive filter-binding assay); format: biochemical, human; settings: 100 μM compound, 20 μM ATP
Method: Profiling of 117 protein kinases with CoA, dpCoA and ADP was carried out at the International Centre for Protein Kinase Profiling at the University of Dundee. Each compound was tested in vitro, in duplicate, at 100 μM final concentration using recombinant kinases, model substrates and optimal concentrations of ATP. Bacterially expressed full-length His-Aurora A was used to determine the IC50 value for CoA (in the presence or absence of DTT), dpCoA, ADP and desulfo-CoA. The assay was performed in the presence of 5 μM competing ATP. To examine whether the inhibitory effect of CoA on Aurora A is modulated by TPX2, IC50 values for CoA were also generated in the presence and absence of 1 μg TPX2 (residues 1–43) fragment.

T5 sequence (O14965 whole entry C290A): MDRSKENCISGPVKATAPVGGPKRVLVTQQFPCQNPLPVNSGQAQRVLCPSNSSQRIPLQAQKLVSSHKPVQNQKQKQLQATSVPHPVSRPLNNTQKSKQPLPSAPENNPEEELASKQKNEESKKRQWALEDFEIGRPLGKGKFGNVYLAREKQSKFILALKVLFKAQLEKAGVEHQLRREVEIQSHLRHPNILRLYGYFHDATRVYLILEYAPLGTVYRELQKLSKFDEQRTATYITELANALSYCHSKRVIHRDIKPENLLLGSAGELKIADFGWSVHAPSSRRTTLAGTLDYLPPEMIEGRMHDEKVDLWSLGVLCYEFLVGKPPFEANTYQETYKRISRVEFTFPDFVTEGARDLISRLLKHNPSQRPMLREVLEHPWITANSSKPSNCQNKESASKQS
T3 sequence (O14965 whole entry T217E): as the sequence (O14965 whole entry C290A) above, with T217E, A290C counted along it
T1 sequence (O14965 whole entry): as the sequence (O14965 whole entry C290A) above, with A290C counted along it
Sequence of Aurora B (Q96GD4 whole entry): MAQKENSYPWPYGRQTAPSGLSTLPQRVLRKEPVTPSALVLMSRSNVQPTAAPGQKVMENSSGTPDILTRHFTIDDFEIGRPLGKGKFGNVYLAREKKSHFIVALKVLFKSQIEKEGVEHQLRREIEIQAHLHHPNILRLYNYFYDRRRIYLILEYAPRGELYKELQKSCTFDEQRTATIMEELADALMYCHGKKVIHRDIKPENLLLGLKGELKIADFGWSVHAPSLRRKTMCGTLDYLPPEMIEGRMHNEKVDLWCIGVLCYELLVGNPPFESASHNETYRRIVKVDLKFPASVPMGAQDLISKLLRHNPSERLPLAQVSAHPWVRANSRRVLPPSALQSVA
T4 sequence (O14965 whole entry C290A/C393A): as the sequence (O14965 whole entry C290A) above, with C393A counted along it
T2 sequence (Q96GD4 whole entry E161T): as the sequence (Q96GD4 whole entry) above, with E161T counted along it

In the case of `CC(C)(COP(=O)(O)OP(=O)(O)OC[C@H]1O[C@@H](n2cnc3c(N)ncnc32)[C@H](O)[C@@H]1OP(=O)(O)O)[C@@H](O)C(=O)NCCC(=O)NCCS` [CoA, Coenzyme A], the “In vitro CoAlation of Aurora A” value [1] is reported as “strong CoAlation”, the “CoA binding (in vitro CoAlation)” value [2] is reported as “strong binding” and the “In vitro CoAlation of Aurora B” value [3] is reported as “CoAlated at an extremely low level”. The “CoA binding compared to the wild-type kinase” value [4] was “significantly reduced CoA binding”, the “Covalent modification (binding) by CoA” value [5] was “no binding was detected” and the “Reduction of covalent modification by CoA in comparison to wild-type Aurora A” value [6] was > 95%. The “Kinase activity, % of activity in the absence of inhibitor” value [7] was 81.0%.
